The text below walks through data of patent publication US20260356819A1, “OXOISOINDOLINYL-SUBSTITUTED […] DERIVATIVE AND USE THEREOF” (GLUETACS THERAPEUTICS (SHANGHAI) CO., LTD., priority 2023, published 2026).

Assay type in all cases: cell-based
What all share (conditions): compounds at 50 nM and 500 nM

Experiment [1] deals with T1, WEE1 (Homo sapiens, UniProt P30291+Q96SW2).
T1 construct: The supernatant was aspirated as the extracted total cell protein; endogenous in cells; host or cells: human peripheral blood mononuclear cells (hPBMCs)
T1 sequence (P30291 whole entry): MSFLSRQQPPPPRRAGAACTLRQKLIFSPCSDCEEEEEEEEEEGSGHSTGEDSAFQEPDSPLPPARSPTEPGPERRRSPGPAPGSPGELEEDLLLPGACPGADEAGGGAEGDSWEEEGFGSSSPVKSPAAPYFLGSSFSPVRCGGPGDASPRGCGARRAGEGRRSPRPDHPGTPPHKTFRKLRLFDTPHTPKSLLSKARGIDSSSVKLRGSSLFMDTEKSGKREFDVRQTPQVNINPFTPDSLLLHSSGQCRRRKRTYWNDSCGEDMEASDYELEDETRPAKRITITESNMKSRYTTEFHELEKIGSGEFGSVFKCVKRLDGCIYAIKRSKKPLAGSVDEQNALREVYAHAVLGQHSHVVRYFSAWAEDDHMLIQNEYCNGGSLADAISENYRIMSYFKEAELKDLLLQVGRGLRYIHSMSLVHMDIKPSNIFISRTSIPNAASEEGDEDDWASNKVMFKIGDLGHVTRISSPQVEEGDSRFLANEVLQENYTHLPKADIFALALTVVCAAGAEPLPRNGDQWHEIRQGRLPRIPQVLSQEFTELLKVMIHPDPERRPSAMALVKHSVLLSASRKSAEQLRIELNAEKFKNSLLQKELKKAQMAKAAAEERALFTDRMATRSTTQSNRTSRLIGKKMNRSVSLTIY
T1 sequence (Q96SW2 whole entry): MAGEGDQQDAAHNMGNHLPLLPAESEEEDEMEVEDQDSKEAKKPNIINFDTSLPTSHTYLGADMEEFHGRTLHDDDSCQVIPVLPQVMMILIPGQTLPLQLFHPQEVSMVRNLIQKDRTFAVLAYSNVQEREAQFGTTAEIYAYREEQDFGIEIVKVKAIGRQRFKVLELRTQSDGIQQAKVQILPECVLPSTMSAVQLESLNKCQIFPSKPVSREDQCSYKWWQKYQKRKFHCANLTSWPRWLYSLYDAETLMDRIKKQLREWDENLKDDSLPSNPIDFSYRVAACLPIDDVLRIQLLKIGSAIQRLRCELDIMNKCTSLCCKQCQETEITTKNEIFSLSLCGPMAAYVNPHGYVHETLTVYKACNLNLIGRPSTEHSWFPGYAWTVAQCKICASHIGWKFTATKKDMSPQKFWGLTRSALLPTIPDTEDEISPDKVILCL
T1 sequence (Q16531 whole entry partner): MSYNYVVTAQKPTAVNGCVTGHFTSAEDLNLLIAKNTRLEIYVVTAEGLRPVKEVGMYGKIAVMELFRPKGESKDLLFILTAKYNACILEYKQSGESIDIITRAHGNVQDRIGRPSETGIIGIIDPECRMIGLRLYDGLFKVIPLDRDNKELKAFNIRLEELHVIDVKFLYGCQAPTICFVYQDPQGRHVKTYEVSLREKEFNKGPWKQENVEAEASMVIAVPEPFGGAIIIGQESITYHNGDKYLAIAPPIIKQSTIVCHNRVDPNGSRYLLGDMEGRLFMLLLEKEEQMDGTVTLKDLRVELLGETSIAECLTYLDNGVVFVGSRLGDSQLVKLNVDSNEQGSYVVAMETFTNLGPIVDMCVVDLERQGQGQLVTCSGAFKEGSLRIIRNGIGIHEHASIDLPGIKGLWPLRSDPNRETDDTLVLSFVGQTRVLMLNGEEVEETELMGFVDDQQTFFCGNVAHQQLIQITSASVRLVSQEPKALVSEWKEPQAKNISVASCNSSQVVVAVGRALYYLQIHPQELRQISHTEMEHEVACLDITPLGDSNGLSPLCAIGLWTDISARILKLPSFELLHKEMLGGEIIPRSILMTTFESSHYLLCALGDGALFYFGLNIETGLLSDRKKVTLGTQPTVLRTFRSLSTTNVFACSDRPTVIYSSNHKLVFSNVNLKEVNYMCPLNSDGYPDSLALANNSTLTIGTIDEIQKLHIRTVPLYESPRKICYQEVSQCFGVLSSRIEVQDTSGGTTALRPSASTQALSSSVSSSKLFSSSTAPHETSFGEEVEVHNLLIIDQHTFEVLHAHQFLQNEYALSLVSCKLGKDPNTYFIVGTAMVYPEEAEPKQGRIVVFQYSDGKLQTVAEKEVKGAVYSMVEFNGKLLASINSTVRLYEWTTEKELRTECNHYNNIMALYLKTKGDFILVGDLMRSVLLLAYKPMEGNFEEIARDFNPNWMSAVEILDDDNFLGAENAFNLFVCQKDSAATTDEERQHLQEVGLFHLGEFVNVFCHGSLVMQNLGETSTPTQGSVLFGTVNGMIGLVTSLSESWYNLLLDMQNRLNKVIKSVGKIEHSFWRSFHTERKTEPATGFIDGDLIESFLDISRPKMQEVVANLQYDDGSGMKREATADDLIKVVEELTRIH
Put plainly: Western blot degradation of WEE1 in hPBMCs (24 h). The method in brief:
(§1)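 Read-out is Western blot band grayscale, divided by internal control band and normalised to give percent target protein remaining; degradation rate is 1 minus that value. Cells were human PBMCs exposed to compound at 50 nM and 500 nM for 24 hours.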
On the technique in general: Immunoblotting shows a protein as a band on a membrane.

The target of experiment [2] is T2, IKZF1 (Homo sapiens, UniProt Q13422+Q96SW2).
T2 construct: The supernatant was aspirated as the extracted total cell protein; endogenous in cells; host or cells: human peripheral blood mononuclear cells (hPBMCs)
T2 sequence (Q13422 whole entry): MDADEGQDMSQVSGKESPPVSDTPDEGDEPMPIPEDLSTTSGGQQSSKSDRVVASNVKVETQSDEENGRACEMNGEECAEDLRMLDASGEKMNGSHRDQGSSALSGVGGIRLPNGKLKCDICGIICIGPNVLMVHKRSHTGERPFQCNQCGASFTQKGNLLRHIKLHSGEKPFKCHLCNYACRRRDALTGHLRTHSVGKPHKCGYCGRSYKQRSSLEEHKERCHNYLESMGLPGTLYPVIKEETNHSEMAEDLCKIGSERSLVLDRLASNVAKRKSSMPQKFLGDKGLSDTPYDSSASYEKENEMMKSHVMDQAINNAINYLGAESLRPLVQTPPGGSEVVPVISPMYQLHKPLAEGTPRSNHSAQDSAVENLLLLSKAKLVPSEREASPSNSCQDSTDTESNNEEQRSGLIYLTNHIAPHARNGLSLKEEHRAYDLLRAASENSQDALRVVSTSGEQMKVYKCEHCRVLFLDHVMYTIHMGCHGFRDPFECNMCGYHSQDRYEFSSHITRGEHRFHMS
T2 sequence (Q96SW2 whole entry): as the sequence (Q96SW2 whole entry) above
T2 sequence (Q16531 whole entry partner): as the sequence (Q16531 whole entry partner) above
The experiment in a line: Western blot degradation of IKZF1 in hPBMCs (24 h). The method in brief:
as §1

The target of experiment [3] is T3, IKZF2 (Homo sapiens, UniProt Q96SW2+Q9UKS7).
T3 construct: The supernatant was aspirated as the extracted total cell protein; endogenous in cells; host or cells: human peripheral blood mononuclear cells (hPBMCs)
T3 sequence (Q9UKS7 whole entry): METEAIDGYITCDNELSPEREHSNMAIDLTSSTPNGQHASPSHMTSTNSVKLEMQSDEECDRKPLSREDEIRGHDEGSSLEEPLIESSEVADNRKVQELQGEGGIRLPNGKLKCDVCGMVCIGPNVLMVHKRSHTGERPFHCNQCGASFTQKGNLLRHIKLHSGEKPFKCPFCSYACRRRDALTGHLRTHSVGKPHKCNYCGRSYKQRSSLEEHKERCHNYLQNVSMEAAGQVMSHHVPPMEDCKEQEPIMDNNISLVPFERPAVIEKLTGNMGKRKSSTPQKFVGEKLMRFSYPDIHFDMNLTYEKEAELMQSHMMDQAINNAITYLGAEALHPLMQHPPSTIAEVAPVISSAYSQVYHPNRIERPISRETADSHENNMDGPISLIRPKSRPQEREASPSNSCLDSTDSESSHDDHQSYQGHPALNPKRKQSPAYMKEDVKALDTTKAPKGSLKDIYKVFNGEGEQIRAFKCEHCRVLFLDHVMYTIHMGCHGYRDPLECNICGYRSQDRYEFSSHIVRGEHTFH
T3 sequence (Q96SW2 whole entry): as the sequence (Q96SW2 whole entry) above
T3 sequence (Q16531 whole entry partner): as the sequence (Q16531 whole entry partner) above
Put plainly: Western blot degradation of IKZF2 in hPBMCs (24 h). The method in brief:
as §1

Experiment [4] addresses T4, IKZF3 (Homo sapiens, UniProt Q96SW2+Q9UKT9).
T4 construct: The supernatant was aspirated as the extracted total cell protein; endogenous in cells; host or cells: human peripheral blood mononuclear cells (hPBMCs)
Put plainly: Western blot degradation of IKZF3 in hPBMCs (24 h). The method in brief: as §1

Experiment [5] addresses T5, CK1α (Homo sapiens, UniProt P48729+Q96SW2).
T5 construct: The supernatant was aspirated as the extracted total cell protein; endogenous in cells; host or cells: human peripheral blood mononuclear cells (hPBMCs)
Put plainly: Western blot degradation of CK1α in hPBMCs (24 h). The method in brief:
as §1

Experiment [6] has as its target T6, GSPT1 (Homo sapiens, UniProt P15170+Q96SW2).
T6 construct: The supernatant was aspirated as the extracted total cell protein; endogenous in cells; host or cells: human peripheral blood mononuclear cells (hPBMCs)
Put plainly: Western blot degradation of GSPT1 in hPBMCs (24 h). The method in brief: as §1

T6 sequence (P15170 whole entry): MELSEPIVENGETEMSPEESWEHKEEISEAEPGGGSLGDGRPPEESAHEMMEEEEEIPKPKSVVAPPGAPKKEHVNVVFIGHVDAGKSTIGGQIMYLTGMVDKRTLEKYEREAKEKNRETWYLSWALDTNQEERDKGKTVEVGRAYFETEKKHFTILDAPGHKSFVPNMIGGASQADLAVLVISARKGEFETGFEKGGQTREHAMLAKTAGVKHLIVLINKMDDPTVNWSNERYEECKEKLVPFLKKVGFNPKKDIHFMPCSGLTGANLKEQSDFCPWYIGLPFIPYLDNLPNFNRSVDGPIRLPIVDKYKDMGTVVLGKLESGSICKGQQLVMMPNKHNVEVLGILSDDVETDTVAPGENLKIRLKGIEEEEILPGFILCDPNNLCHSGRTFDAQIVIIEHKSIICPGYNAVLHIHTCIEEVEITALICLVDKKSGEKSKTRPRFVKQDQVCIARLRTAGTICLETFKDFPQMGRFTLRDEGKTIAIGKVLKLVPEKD
T6 sequence (Q96SW2 whole entry): as the sequence (Q96SW2 whole entry) above
T6 sequence (Q16531 whole entry partner): as the sequence (Q16531 whole entry partner) above
T4 sequence (Q9UKT9 whole entry): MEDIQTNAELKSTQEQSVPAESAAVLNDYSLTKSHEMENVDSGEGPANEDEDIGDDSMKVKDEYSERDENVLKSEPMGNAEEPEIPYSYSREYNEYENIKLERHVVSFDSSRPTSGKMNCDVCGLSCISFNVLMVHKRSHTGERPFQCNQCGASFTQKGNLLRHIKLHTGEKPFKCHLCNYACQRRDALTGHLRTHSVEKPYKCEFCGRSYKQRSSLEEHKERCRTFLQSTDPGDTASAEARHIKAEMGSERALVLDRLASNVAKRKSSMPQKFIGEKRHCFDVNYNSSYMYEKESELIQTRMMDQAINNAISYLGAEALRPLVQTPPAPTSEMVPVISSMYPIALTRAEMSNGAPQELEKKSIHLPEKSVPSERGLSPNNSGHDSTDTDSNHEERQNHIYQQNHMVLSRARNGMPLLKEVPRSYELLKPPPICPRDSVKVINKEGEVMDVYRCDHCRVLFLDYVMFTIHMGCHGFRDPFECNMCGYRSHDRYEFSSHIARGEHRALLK
T4 sequence (Q96SW2 whole entry): as the sequence (Q96SW2 whole entry) above
T4 sequence (Q16531 whole entry partner): as the sequence (Q16531 whole entry partner) above

`Cc1nc(N2CCN(Cc3ccc4c(c3)C(=O)N(N3CCC(=O)NC3=O)C4=O)CC2)c2c(-c3ccccc3)csc2n1` [GT-08099, 2-(2,4-dioxotetrahydropyrimidin-1(2H)-yl)-5-((4-(2-methyl-5-phenylthieno[2,3-d]pyrimidin-4-yl)piperazin-1-yl)methyl)isoindoline-1,3-dione]: in experiment [1], the “WEE1 substrate protein remaining %” value is recorded as “B (80%< substrate protein remaining % ≤100%)”. Besides, the “IKZF1 substrate protein remaining %” value in experiment [2] is recorded as “B (80%< substrate protein remaining % ≤100%)”. Moreover, in experiment [3], the “IKZF2 substrate protein remaining %” value is “B (80%< substrate protein remaining % ≤100%)”. For the same molecule, the “IKZF3 substrate protein remaining %” value in experiment [4] is “B (80%< substrate protein remaining % ≤100%)”. The “CK1α substrate protein remaining %” value in experiment [5] is listed as “B (80%< substrate protein remaining % ≤100%)”. Besides, the “GSPT1 substrate protein remaining %” value in experiment [6] is “A (0% ≤ substrate protein remaining % ≤80%)”.

With `O=C1CCN(N2Cc3cc(CN4CCN(c5cc(F)ccc5F)CC4)ccc3C2=O)C(=O)N1` [GT-06779, 1-(5-((4-(2,5-difluorophenyl)piperazin-1-yl)methyl)-1-oxoisoindolin-2-yl)dihydropyrimidine-2,4(1H,3H)-dione], in experiment [1], the “WEE1 substrate protein remaining %” value is recorded as “B (80%< substrate protein remaining % ≤100%)”. Also, in experiment [2], the “IKZF1 substrate protein remaining %” value is recorded as “B (80%< substrate protein remaining % ≤100%)”. In experiment [3], the “IKZF2 substrate protein remaining %” value was “B (80%< substrate protein remaining % ≤100%)”. Further, the “IKZF3 substrate protein remaining %” value in experiment [4] is on record as “B (80%< substrate protein remaining % ≤100%)”. Further, the “CK1α substrate protein remaining %” value in experiment [5] is on record as “A (0% ≤ substrate protein remaining % ≤80%)”. The “GSPT1 substrate protein remaining %” value in experiment [6] was “B (80%< substrate protein remaining % ≤100%)”.

`O=C1CCN(N2Cc3cc(CN4CCC(c5noc6ccccc56)CC4)ccc3C2=O)C(=O)N1` [GT-07642, 1-(5-((4-(benzo[d]isoxazol-3-yl)piperidin-1-yl)methyl)-1-oxoisoindolin-2-yl)dihydropyrimidine-2,4(1H,3H)-dione]: in experiment [1], the “WEE1 substrate protein remaining %” value is “B (80%< substrate protein remaining % ≤100%)”. Moreover, in experiment [2], the “IKZF1 substrate protein remaining %” value was “B (80%< substrate protein remaining % ≤100%)”. For the same molecule, in experiment [3], the “IKZF2 substrate protein remaining %” value is listed as “B (80%< substrate protein remaining % ≤100%)”. Moreover, in experiment [4], the “IKZF3 substrate protein remaining %” value is reported as “B (80%< substrate protein remaining % ≤100%)”. The “CK1α substrate protein remaining %” value in experiment [5] is “B (80%< substrate protein remaining % ≤100%)”. The “GSPT1 substrate protein remaining %” value in experiment [6] is “A (0% ≤ substrate protein remaining % ≤80%)”.

Take `O=C1CCN(N2C(=O)c3ccc(CN4CCN(c5ccnc(Br)c5F)CC4)cc3C2=O)C(=O)N1` [GT-07167, 5-((4-(2-bromo-3-fluoropyridin-4-yl)piperazin-1-yl)methyl)-2-(2,4-dioxotetrahydropyrimidin-1(2H)-yl)isoindoline-1,3-dione]: the “WEE1 substrate protein remaining %” value in experiment [1] is “B (80%< substrate protein remaining % ≤100%)”. Moreover, the “IKZF1 substrate protein remaining %” value in experiment [2] is “B (80%< substrate protein remaining % ≤100%)”. Further, the “IKZF2 substrate protein remaining %” value in experiment [3] was “A (0% ≤ substrate protein remaining % ≤80%)”. Also, the “IKZF3 substrate protein remaining %” value in experiment [4] is listed as “B (80%< substrate protein remaining % ≤100%)”. In addition, the “CK1α substrate protein remaining %” value in experiment [5] is “B (80%< substrate protein remaining % ≤100%)”. Also, the “GSPT1 substrate protein remaining %” value in experiment [6] is “A (0% ≤ substrate protein remaining % ≤80%)”.

On to `O=C1CCN(N2Cc3cc(CN4CCC(c5nccc(Cl)c5Cl)CC4)ccc3C2=O)C(=O)N1` [GT-06388, 1-(5-((4-(3,4-dichloropyridin-2-yl)piperidin-1-yl)methyl)-1-oxoisoindolin-2-yl)dihydropyrimidine-2,4(1H,3H)-dione], for which the “WEE1 substrate protein remaining %” value in experiment [1] is on record as “B (80%< substrate protein remaining % ≤100%)”. Besides, the “IKZF1 substrate protein remaining %” value in experiment [2] is “B (80%< substrate protein remaining % ≤100%)”. In experiment [3], the “IKZF2 substrate protein remaining %” value is given as “B (80%< substrate protein remaining % ≤100%)”. Moreover, the “IKZF3 substrate protein remaining %” value in experiment [4] is listed as “B (80%< substrate protein remaining % ≤100%)”. The “CK1α substrate protein remaining %” value in experiment [5] is on record as “B (80%< substrate protein remaining % ≤100%)”. For the same molecule, the “GSPT1 substrate protein remaining %” value in experiment [6] is given as “A (0% ≤ substrate protein remaining % ≤80%)”.

For the molecule `O=C1CCN(N2C(=O)c3ccc(CN4CCN(c5nc(Cl)nc6ccsc56)CC4)cc3C2=O)C(=O)N1` [GT-08453, 5-((4-(2-chlorothieno[3,2-d]pyrimidin-4-yl)piperazin-1-yl)methyl)-2-(2,4-dioxotetrahydropyrimidin-1(2H)-yl)isoindoline-1,3-dione], in experiment [1], the “WEE1 substrate protein remaining %” value was “B (80%< substrate protein remaining % ≤100%)”. In addition, the “IKZF1 substrate protein remaining %” value in experiment [2] is recorded as “A (0% ≤ substrate protein remaining % ≤80%)”. In addition, the “IKZF2 substrate protein remaining %” value in experiment [3] is recorded as “B (80%< substrate protein remaining % ≤100%)”. Further, the “IKZF3 substrate protein remaining %” value in experiment [4] was “A (0% ≤ substrate protein remaining % ≤80%)”. In experiment [5], the “CK1α substrate protein remaining %” value is recorded as “A (0% ≤ substrate protein remaining % ≤80%)”. Also, in experiment [6], the “GSPT1 substrate protein remaining %” value was “A (0% ≤ substrate protein remaining % ≤80%)”.

With `Cc1cc(C2CCN(Cc3ccc4c(c3)C(=O)N(N3CCC(=O)NC3=O)C4=O)CC2)cs1` [GT-07421, 2-(2,4-dioxotetrahydropyrimidin-1(2H)-yl)-5-((4-(5-methylthiophen-3-yl)piperidin-1-yl)methyl)isoindoline-1,3-dione], in experiment [1], the “WEE1 substrate protein remaining %” value is reported as “B (80%< substrate protein remaining % ≤100%)”. For the same molecule, the “IKZF1 substrate protein remaining %” value in experiment [2] is reported as “B (80%< substrate protein remaining % ≤100%)”. Further, the “IKZF2 substrate protein remaining %” value in experiment [3] was “B (80%< substrate protein remaining % ≤100%)”. Moreover, the “IKZF3 substrate protein remaining %” value in experiment [4] was “B (80%< substrate protein remaining % ≤100%)”. Moreover, the “CK1α substrate protein remaining %” value in experiment [5] is reported as “A (0% ≤ substrate protein remaining % ≤80%)”. For the same molecule, the “GSPT1 substrate protein remaining %” value in experiment [6] was “A (0% ≤ substrate protein remaining % ≤80%)”.

In the case of `Cc1nc(C2=CCN(Cc3ccc4c(c3)CN(N3CCC(=O)NC3=O)C4=O)CC2)c2c3c(sc2n1)CCC3` [GT-08437, 1-(5-((4-(2-methyl-6,7-dihydro-5H-cyclopenta[4,5]thieno[2,3-d]pyrimidin-4-yl)-3,6-dihydropyridin-1(2H)-yl)methyl)-1-oxoisoindolin-2-yl)dihydropyrimidine-2,4(1H,3H)-dione], the “WEE1 substrate protein remaining %” value in experiment [1] was “A (0% ≤ substrate protein remaining % ≤80%)”. Besides, the “IKZF1 substrate protein remaining %” value in experiment [2] was “A (0% ≤ substrate protein remaining % ≤80%)”. Further, the “IKZF2 substrate protein remaining %” value in experiment [3] was “B (80%< substrate protein remaining % ≤100%)”. In experiment [4], the “IKZF3 substrate protein remaining %” value was “A (0% ≤ substrate protein remaining % ≤80%)”. For the same molecule, in experiment [5], the “CK1α substrate protein remaining %” value is “B (80%< substrate protein remaining % ≤100%)”. Besides, the “GSPT1 substrate protein remaining %” value in experiment [6] was “A (0% ≤ substrate protein remaining % ≤80%)”.

As for `O=C1CCN(N2C(=O)c3ccc(CN4C5CC4CN(c4cccc(Cl)c4Cl)C5)cc3C2=O)C(=O)N1` [GT-05251, 5-((3-(2,3-dichlorophenyl)-3,6-diazabicyclo[3.1.1]heptan-6-yl)methyl)-2-(2,4-dioxotetrahydropyrimidin-1(2H)-yl)isoindoline-1,3-dione], the “WEE1 substrate protein remaining %” value in experiment [1] was “B (80%< substrate protein remaining % ≤100%)”. Also, the “IKZF1 substrate protein remaining %” value in experiment [2] is “B (80%< substrate protein remaining % ≤100%)”. The “IKZF2 substrate protein remaining %” value in experiment [3] was “A (0% ≤ substrate protein remaining % ≤80%)”. Also, the “IKZF3 substrate protein remaining %” value in experiment [4] is listed as “B (80%< substrate protein remaining % ≤100%)”. The “CK1α substrate protein remaining %” value in experiment [5] is “B (80%< substrate protein remaining % ≤100%)”. For the same molecule, in experiment [6], the “GSPT1 substrate protein remaining %” value is reported as “B (80%< substrate protein remaining % ≤100%)”.
